Source: patent US20090005385A1, “Treatment or Prevention of Cancer or Cardiovascular Disease with Methenyltetrahydrofolate Synthetases” (CORNELL RESEARCH FOUNDATION, INC., priority 2004, published 2009)

Tests used:
MCF-7 cells [1] = experiment: Radiolabeled folate accumulation in cultured cells treated with catecholamines; type: cell-based, human; settings: 12 h, 25 nM (6S)-[^3H]-5-formylTHF, 0-150 μM catecholamine
Protocol: (§1) Cell monolayers at 70% confluence in 6-well plates were labeled for 12 h in defined αMEM lacking folate and glycine, but supplemented with 25 nM (6S)-[^3H]5-formylTHF and 0, 25 μM, 50 μM, 75 μM, 100 μM, or 150 μM NADA, dopamine, or epinephrine. Cells were harvested by washing with 5 mL PBS, trypsinized, and pelleted by centrifugation and viable cells (determined by their ability to exclude trypan blue) were quantified. The cell pellets were lysed with 0.2 M ammonium hydroxide, and the intracellular tritium was quantified using a Beckman LS 8100 liquid scintillation counter.
Because the addition of NADA to the chase medium increased folate turnover rates in MCF-7 cells, the effects of various catecholamines on [^3H]folate accumulation was investigated. Cells were cultured for 12 h in defined αMEM medium containing 25 nM (6S)-[^3H]-5-formylTHF and various concentrations of NADA, dopamine, and epinephrine, and cellular [^3H]folate content was determined.

MCF-7 cells [2] = experiment: Folate turnover in cultured cells (pulse-chase); type: cell-based, human; settings: 20 μM in chase medium
Protocol: Cell monolayers at 75% confluence were washed with PBS, then labeled for 12 h in defined αMEM lacking folate and glycine and supplemented with 25 nM (6S)-[^3H]5-formylTHF. For the chase, cell monolayers were washed with 10 ml of PBS, trypsinized, and pelleted by centrifugation. The cells were seeded in triplicate (1×10^6 cells) into 100 mm culture plates containing 10 ml of defined αMEM supplemented with 2 μM folic acid. Catecholamines (20 μM dopamine, NADA, and L-dopa) were prepared freshly and added to the chase media prior to the addition of labeled cells. Cells were harvested at defined time points, the medium was removed and the tritium in the medium was quantified. The cell monolayers were washed with PBS and lysed with 0.2 M ammonium hydroxide. Tritium remaining in the cells was quantified using a Beckman LS 8100 liquid scintillation counter.
Catecholamine availability may be rate limiting for MTHFS-catalyzed folate catabolism in MCF-7 cells. The effects of exogenous catecholamines on folate turnover rates were determined using pulse-chase analyses in MCF-7 cells. Folate turnover in MCF-7 cells labeled with [^3H]-5-formylTHF is biphasic, with an initial rapid phase of turnover followed by a slower phase (Anguera et al., J. Biol. Chem. 278:29856-29862 (2003), which is hereby incorporated by reference in its entirety). Addition of 20 μM NADA to the chase medium increased the magnitude of the rapid phase of folate turnover by 12% compared to untreated cells (FIG. 11A). […] To distinguish between these two mechanisms, 20 μM dopamine and L-dopa were added to the chase medium. Dopamine is the precursor of NADA, and both dopamine and L-dopa can function as oxidants following oxidation of their diphenolic ring generating dopamine-quinone or dopa-quinone (Rescigno et al., Biochemical Pharmacology 56:1089-1096 (1998); Graham, D. G. Mol. Pharmacol. 14:633-643 (1978), which are hereby incorporated by reference in their entirety). […] The addition of dopamine to the culture medium increased the magnitude of the rapid phase of folate turnover by only 4% relative to untreated cells (FIG. 11A). The minor effect of dopamine on folate turnover may reflect N-acetyltransferase-mediated dopamine acetylation that generating NADA. […] In summary, the pulse chase experiments indicate that NADA may be limiting for in vivo folate catabolism, and NADA may function specifically as the electron acceptor molecule for MTHFS-mediated folate catabolism.

[3] = biological target: T1, recombinant mouse MTHFS protein (Mus musculus, UniProt Q9D110); settings: equilibrium binding
T1 sequence (Q9D110 1-203): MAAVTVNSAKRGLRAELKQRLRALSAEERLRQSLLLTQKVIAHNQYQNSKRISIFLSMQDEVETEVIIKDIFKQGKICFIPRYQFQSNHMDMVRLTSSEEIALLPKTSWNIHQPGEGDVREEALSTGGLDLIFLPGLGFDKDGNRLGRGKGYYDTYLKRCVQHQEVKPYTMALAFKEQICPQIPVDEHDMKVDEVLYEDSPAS

mouse enzyme GARFT = mouse enzyme GARFT (Mus musculus, UniProt Q64737); settings: read-out: Ki mouse GARFT; cited from earlier work
MCF-7 cells [4] = experiment: Cell viability (trypan blue) after catecholamine treatment; type: cell-based, human; settings: 12 h, various concentrations
Protocol: FIG. 12A-B show the effect of NADA, dopamine, and epinephrine on folate accumulation and cell viability in MCF-7 cells. MCF-7 cells were incubated with 25.0 nM (6S)-[^3H]5-formylTHF and various concentrations of NADA, dopamine, and epinephrine for 12 h, then viable cells were quantified using trypan blue staining. […] All values were normalized to cpm for untreated cells, and untreated cells were given an arbitrary value of 100%. […] Cell viability is expressed as the percent of viable cells divided by the total number of cells. Total [^3H]folate compounds were quantified in cell lysates by liquid scintillation. All values represent quadruplicate measures, and error bars are standard deviations of the mean.
as §1

MTHFS [5] = experiment: Inhibition of MTHFS-catalyzed conversion of 5-formylTHF to 5,10-methenylTHF (spectrophotometric assay); type: biochemical
Protocol: Tissue samples were sonicated four times for 15 s in a buffer containing 100 mM HEPES pH 7.0, 100 mM sodium chloride, 5 mM EDTA, 1% Tween-20. The solution was clarified by centrifugation. MTHFS activity was determined using a spectrophotometer by monitoring the appearance of 5,10-methenyltetrahydrofolate, which has an absorbance maximum at 355 nm. For a typical assay, 50 μL of clarified tissue supernatant was added to a quartz cuvette containing 100 μM (6S)-5-formylTHF, 1 mM Mg-ATP and 100 mM MES, pH 6.0 and the rate of 5,10-methenylTHF formation was quantified. Activity measurements were normalized to total protein that was quantified using the Lowry-Bensadoun method (Bensadoun et al., “Assay of Proteins in the Presence of Interfering Materials,” Anal Biochem 70:241-250 (1976), which is hereby incorporated by reference in its entirety).
The UV spectrum of purified rabbit liver MTHFS differs from the spectrum of recombinant mouse MTHFS (FIG. 4). Therefore, it was investigated whether rabbit liver MTHFS could be reconstituted with NADA resulting in a change in the UV spectrum of the protein. […]

cell cultures = settings: substrate for FPGS; cited from earlier work
MTHFS [6] = biological target: T2, MTHFS (Homo sapiens, UniProt P49914); settings: cited from earlier work
T2 sequence (P49914 1-203): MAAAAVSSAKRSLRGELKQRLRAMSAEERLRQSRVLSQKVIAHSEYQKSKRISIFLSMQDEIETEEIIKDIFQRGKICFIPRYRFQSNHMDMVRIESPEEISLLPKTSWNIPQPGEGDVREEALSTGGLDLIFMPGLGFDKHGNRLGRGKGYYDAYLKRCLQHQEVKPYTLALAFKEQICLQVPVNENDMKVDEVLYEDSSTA

[7] = biological target: T3, MTHFS.oxNADA.Cu^2+ complex (Mus musculus, UniProt Q9D110); experiment: MTHFS-mediated folate catabolism in vitro (HPLC, pABG formation); type: biochemical; settings: 5 min incubation, five independent experiments
T3 construct: hexa-histidine tag; made in house; host or cells: E. coli BL21 Star
T3 sequence (Q9D110 1-203): T1 sequence (Q9D110 1-203)
Protocol: Recombinant mouse MTHFS protein (50 μM) was incubated with 50 μM CuCl2, 50 μM NADA (oxidized with equimolar amounts of sodium periodate, extracted with ethyl acetate, and diluted 1:1 with 1 M Tris pH 8.0), in 50 mM Tris pH 8.0 for 5 min, then dialyzed against 2 L of 50 mM Tris pH 8.0 at 4° C. for 5 hours to remove unbound CuCl2 and oxidized NADA. (6S)-[^3H]-5-methylTHF or (6S)-[^3H]-5-formylTHF, were evaporated to dryness using a speedvac, resuspended in 20 μL of 50 μM unlabeled (6S)-5-methylTHF or (6S)-5-formylTHF in 100 mM MES pH 6.5, then approximately 275,000 cpm of the labeled folate was added immediately to either the dialyzed mouse MTHFS protein or the dialysis buffer as a control. The mixture was incubated 5 min at room temperature, then either analyzed immediately by HPLC or flash frozen using dry ice/ethanol. The reactions were spiked with a mixture of unlabeled pABG, (6R,S)-5-formylTHF, and (6S)-5-methylTHF, then analyzed on a Shimadzu HPLC equipped with a diode array UV spectrophotometric detector and a Luna 5μ 250×4.6 mm C18 column (Phenomenex). […] For each analysis, 1.0 ml fractions were collected into scintillation tubes, and the tritium was quantified using a Beckman LS 6500 liquid scintillation counter. […]

Sequence of mouse enzyme GARFT (Q64737 whole entry): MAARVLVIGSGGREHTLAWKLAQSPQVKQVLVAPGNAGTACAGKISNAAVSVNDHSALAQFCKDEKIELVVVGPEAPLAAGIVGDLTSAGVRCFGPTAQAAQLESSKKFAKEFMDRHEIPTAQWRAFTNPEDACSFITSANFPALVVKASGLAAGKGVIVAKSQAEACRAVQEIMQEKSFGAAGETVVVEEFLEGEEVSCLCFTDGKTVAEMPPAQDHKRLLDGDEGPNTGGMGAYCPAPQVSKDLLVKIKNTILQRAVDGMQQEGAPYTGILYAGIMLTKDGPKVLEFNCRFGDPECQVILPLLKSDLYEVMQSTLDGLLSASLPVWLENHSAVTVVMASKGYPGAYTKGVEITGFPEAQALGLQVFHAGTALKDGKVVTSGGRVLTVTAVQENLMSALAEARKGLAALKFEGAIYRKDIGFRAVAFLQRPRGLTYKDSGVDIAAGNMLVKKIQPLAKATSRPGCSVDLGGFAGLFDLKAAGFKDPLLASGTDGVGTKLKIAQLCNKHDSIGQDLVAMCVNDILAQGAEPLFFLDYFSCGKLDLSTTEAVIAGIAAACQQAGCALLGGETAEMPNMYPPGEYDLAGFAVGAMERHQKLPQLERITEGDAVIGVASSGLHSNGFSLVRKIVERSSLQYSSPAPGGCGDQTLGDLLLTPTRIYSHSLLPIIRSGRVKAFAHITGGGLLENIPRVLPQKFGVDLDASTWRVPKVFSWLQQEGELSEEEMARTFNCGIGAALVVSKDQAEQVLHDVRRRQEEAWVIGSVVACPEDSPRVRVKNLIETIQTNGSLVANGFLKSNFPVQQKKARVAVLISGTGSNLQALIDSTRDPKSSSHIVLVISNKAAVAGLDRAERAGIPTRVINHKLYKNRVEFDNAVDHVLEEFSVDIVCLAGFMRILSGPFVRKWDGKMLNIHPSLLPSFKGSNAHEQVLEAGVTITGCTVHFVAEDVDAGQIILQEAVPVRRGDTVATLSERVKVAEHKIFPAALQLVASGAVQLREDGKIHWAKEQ

For `NCCc1ccc(O)c(O)c1` [dopamine], the “[^3H]folate accumulation” value (MCF-7 cells [1]) was “Neither the addition of dopamine nor epinephrine to culture media impaired [^3H]folate accumulation”, the “increase in magnitude of the rapid phase of folate turnover compared to untreated cells” value (MCF-7 cells [2]) was 4% and the “binding to recombinant mouse MTHFS protein” value [3] was “neither dopamine nor oxidized dopamine bind”.

In the case of `Nc1nc2c(c(=O)[nH]1)C[C@@H](CCc1ccc(C(=O)N[C@@H](CCC(=O)O)C(=O)O)cc1)CN2` [DDATHF, 5,10-dideazatetrahydrofolate], the Ki (mouse enzyme GARFT) is given as 6 nM.

In the case of `CC(=O)NCCc1ccc(O)c(O)c1` [NADA, N-acetyldopamine], the “[^3H]folate accumulation” value (MCF-7 cells [1]) is reported as “decreased [^3H]folate accumulation in a dose-dependent manner”, the “increase in magnitude of the rapid phase of folate turnover compared to untreated cells” value (MCF-7 cells [2]) is reported as 12% and the “slow phase of folate turnover relative to untreated cells” value (MCF-7 cells [2]) is reported as “did not change”. For the same compound, the cell viability (MCF-7 cells [4]) was “NADA-induced cell death” and the “inhibition of MTHFS-catalyzed conversion of 5-formylTHF to 5,10-methenylTHF” value (MTHFS [5]) was “did not inhibit”.

For `Nc1nc(N)c(CCCC(C=O)c2ccc(C(=O)N[C@@H](CCC(=O)O)C(=O)O)cc2)c(=O)[nH]1` (stereo partly drawn) [10-formyl-DDACTHF, 10-formyl-5,10-dideaza-acyclicTHF], the “accumulation in cell cultures” value (cell cultures) is listed as “over 100 fold”.

For `CN1c2c([nH]c(N)nc2=O)NC[C@@H]1CNc1ccc(C(=O)N[C@@H](CCC(=O)O)C(=O)O)cc1` [(6S)-5-methylTHF], the Ki (MTHFS [6]) is given as 18 µM and the “conversion to pABG by reconstituted mouse MTHFS.oxNADA.Cu^2+ protein” value [7] is given as “Approximately 1%”.
